Here are results for 1 substance from patent publication US8846873B2, “Antibodies directed to GPNMB and uses thereof” (Celldex Therapeutics, Inc., priority 2004, dated 2014).

“Also recorded” adds a separate entry of the source.

Assay [1] addresses T1, purified recombinant GPNMB (Homo sapiens, UniProt Q14956).
T1 construct: made in house; host or cells: HEK 293
T1 sequence (Q14956 23-492): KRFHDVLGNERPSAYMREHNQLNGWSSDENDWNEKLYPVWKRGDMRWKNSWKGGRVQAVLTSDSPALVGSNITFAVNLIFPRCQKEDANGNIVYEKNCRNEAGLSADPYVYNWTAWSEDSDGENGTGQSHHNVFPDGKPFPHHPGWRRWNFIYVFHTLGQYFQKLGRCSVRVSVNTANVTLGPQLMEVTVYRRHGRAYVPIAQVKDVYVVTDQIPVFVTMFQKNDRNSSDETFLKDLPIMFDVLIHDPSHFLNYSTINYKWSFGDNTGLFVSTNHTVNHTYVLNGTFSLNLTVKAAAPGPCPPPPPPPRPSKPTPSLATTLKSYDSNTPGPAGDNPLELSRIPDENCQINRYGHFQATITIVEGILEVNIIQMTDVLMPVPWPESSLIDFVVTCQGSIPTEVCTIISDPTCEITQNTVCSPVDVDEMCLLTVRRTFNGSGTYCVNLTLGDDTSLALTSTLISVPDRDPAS
Nature of the assay: ELISA of CR011 engineered antibodies on recombinant GPNMB. It counts as binding. To be noted: anti-FLAG-HRP detection. The protocol:
Plates were then blocked and washed. Various dilutions of the CR011 engineered antibodies were added into the wells. Plates were incubated for 1 h and washed. HRP-conjugated anti-FLAG M2 mAb (Sigma, St. Louis, Mo.) was added into the wells for 1 h, washed and the reaction developed with the TMB substrate reagent as described by the manufacturer (Pharmingen, San Jose, Calif.).
Plates were coated with human GPNMB protein tagged with His and V5. […] Binding of the recombinant mAbs (both monomer and dimer) was detected using anti-FLAG-HRP conjugated mAb M2 (Sigma).
(In general: ELISA stands for enzyme-linked immunosorbent assay.)

Assay [2] has as its system human T cells (CD3). Nature of the assay: Flow cytometry of CR011 engineered antibodies. To be noted: 5 μg/sample/100 μl. It counts as binding. From the text:
(§1) (Jackson ImmunoResearch, West Grove, Pa.) Ten thousand events were collected and analyzed on a FACSCalibur instrument (Becton Dickinson, Mountain View, Calif.).
(§2) To verify binding of the bi-scFv to human CD3 molecules, we used purified human T cells. […] Control anti-CD3 mAb bound to T cells, and control anti-GPNMB mAb bound to SK-Mel-5 tumor cells.
(In flow cytometry, cells or beads pass a laser one at a time.)

The subject of assay [3] is SK-Mel-5 cells. Kind of assay: Flow cytometry of CR011 engineered antibodies. Type of assay: binding, human. To be noted: 5 μg/sample/100 μl.
Source text: as §1, §2

Assay [4] has as its system SK-Mel-5 tumor cells. Nature of the assay: T lymphocyte redirected cytotoxicity (PKH2 / propidium iodine flow cytometry). Type of assay: cell-based, human. To be noted: purified T cells cultured O/N with tumor cells. The protocol: Tumor cells were labeled with PKH2 green fluorescent linker kit (Sigma) and washed. Purified T cells were cultured O/N with PKH2-labeled tumor cells in the presence or absence of purified bi-scFv. Death of GPNMB positive tumor cells was measured by propidium iodine (PI) incorporation.

With “CR011 scFv: CR011 single chain antibody VL-L4-VH Flag; SEQ ID NO: 355”, the “binding to recombinant GPNMB protein” value in assay [1] is listed as “bound to the GPNMB target; also recorded: bind to the recombinant GPNMB protein”. For the same substance, in assay [2], the “binding to T cells” value is given as “did not bind CD3 positive T cells”. Besides, the “binding to SK-Mel-5 cells” value in assay [3] is “present at a low level”. The “killing of SK-Mel-5 tumor cells by T lymphocytes” value in assay [4] was “did not increase killing”.
